Active and inactive are the calls of the source. The calls are words filed in the database; no cut-off is given here.
Experiments:
[1] = target: Human immunodeficiency virus type 1 reverse transcriptase (Human immunodeficiency virus 1, UniProt Q72547); assay: Inhibition of recombinant wild-type HIV-1 3B reverse transcriptase p66/p51 RNA-dependent DNA polymerase activity expressed in Escherichia coli JM109 assessed as reduction in dTTP incorporation using poly(rA)/oligo(dT)16 as template/primer after 40 mins by PicoGreen dye based spectrofluorometric analysis
[2] = test system: Human immunodeficiency virus 2; assay: Antiviral activity against HIV2 ROD infected in human MT4 cells assessed as reduction in virus-induced cytopathic effect after 5 days by MTT assay; type: functional, organism-based; conditions: ISOLATE ROD
[3] = Selectivity index, ratio of CC50 for human MT4 cells to EC50 for HIV1 3B expressing wild type reverse transcriptase; type: toxicity; conditions: read-out: Ratio CC50/EC50
[4] = test system: Human immunodeficiency virus 1; assay: Antiviral activity against HIV1 3B infected in human MT4 cells assessed as reduction in virus-induced cytopathic effect after 5 days by MTT assay; type: functional, organism-based; conditions: Human immunodeficiency virus 1, 3B, MT4, 120 h
[5] = Cytotoxicity against human MT4 cells after 5 days by MTT assay; type: cell-based

Structure (SMILES)	IC50 [1]	Activity [2]	selectivity ratio [3]	EC50 [4]	CC50 at 120 h [5]
Cc1cc(C)cc(S(=O)(=O)n2c(SCC(=O)Nc3ccccc3C(=O)O)nc3ccccc32)c1	21.3 µM	inactive	4	6.83 µM	25.2 µM
Cc1cc(C)cc(S(=O)(=O)n2c(OCC(=O)Nc3ccccc3Br)nc3ccccc32)c1	15.7 µM	inactive	> 157	1.55 µM	> 243 µM
Cc1cc(C)cc(S(=O)(=O)n2c(OCC(=O)Nc3ccc(S(N)(=O)=O)cc3Cl)nc3ccccc32)c1	5.84 µM	inactive	> 908	0.25 µM	> 227 µM
Cc1cc(C)cc(S(=O)(=O)n2c(SCC(=O)Nc3ccccc3Cl)nc3ccccc32)c1	–	inactive	–	0.88 µM	–
Cc1cc(C)cc(S(=O)(=O)n2c(SCC(=O)Nc3ccc(S(C)(=O)=O)cc3Cl)nc3ccccc32)c1	–	–	5540	–	≥ 222 µM
Cc1cc(C)cc(S(=O)(=O)n2c(OCC(=O)Nc3ccccc3Cl)nc3ccccc32)c1	47.3 µM	inactive	155	1.09 µM	169 µM
Cc1ccnc2c1NC(=O)c1cccnc1N2C1CC1 [NEVIRAPINE]	–	–	–	–	> 15 µM
Cc1cc(C)cc(S(=O)(=O)n2c(SCC(=O)Nc3ccccc3C)nc3ccccc32)c1	0.222 µM	inactive	27	0.235 µM	6.15 µM
Cc1cc(C)cc(S(=O)(=O)n2c(SCC(=O)Nc3ccc(S(C)(=O)=O)cc3)nc3ccccc32)c1	0.047 µM	inactive	385	0.028 µM	10.6 µM
Cc1cc(C)cc(S(=O)(=O)n2c(SCC(=O)Nc3ccc(S(N)(=O)=O)cc3Cl)nc3ccccc32)c1	–	inactive	–	–	–
Cc1cc(C)cc(S(=O)(=O)n2c(SCC(=O)Nc3ccccc3Br)nc3ccccc32)c1	–	inactive	> 3930	–	≥ 236 µM
COC(=O)c1ccc(NC(=O)CSc2nc3ccccc3n2S(=O)(=O)c2cc(C)cc(C)c2)cc1	0.088 µM	inactive	196	0.051 µM	10 µM
Cc1cc(C)cc(S(=O)(=O)n2c(OCC(=O)Nc3ccc(S(C)(=O)=O)cc3Cl)nc3ccccc32)c1	0.76 µM	inactive	> 1890	0.12 µM	> 228 µM
Cc1ccc(NC(=O)CSc2nc3ccccc3n2S(=O)(=O)c2cc(C)cc(C)c2)cc1	0.091 µM	inactive	31	0.094 µM	2.97 µM
COC(=O)c1ccc(NC(=O)CSc2nc3ccccc3n2S(=O)(=O)c2cc(C)cc(C)c2)c(Cl)c1	–	inactive	–	–	145 µM
COC(=O)c1ccccc1NC(=O)CSc1nc2ccccc2n1S(=O)(=O)c1cc(C)cc(C)c1	15.7 µM	inactive	< 5	≥ 1.06 µM	5.22 µM
Cc1cc(C)cc(S(=O)(=O)n2c(SCC(=O)Nc3ccccc3S(C)(=O)=O)nc3ccccc32)c1	60.6 µM	inactive	< 1	≥ 9.44 µM	9.31 µM
Cc1cc(C)cc(S(=O)(=O)n2c(SCC(=O)Nc3ccc(C(=O)O)cc3)nc3ccccc32)c1	0.13 µM	inactive	577	0.2 µM	115 µM
COC(=O)c1ccc(NC(=O)COc2nc3ccccc3n2S(=O)(=O)c2cc(C)cc(C)c2)c(Cl)c1	5.45 µM	inactive	151	0.79 µM	119 µM
O=C1Nc2ccc(Cl)cc2[C@@](C#CC2CC2)(C(F)(F)F)O1 [EFAVIRENZ]	–	–	–	–	> 6.33 µM
Cc1cc(C)cc(S(=O)(=O)n2c(SCC(=O)Nc3ccc(S(N)(=O)=O)cc3)nc3ccccc32)c1	0.05 µM	inactive	1290	0.024 µM	30.9 µM
Cc1cc(C)cc(S(=O)(=O)n2c(SCC(=O)Nc3ccccc3S(N)(=O)=O)nc3ccccc32)c1	7.68 µM	inactive	9	2.72 µM	25 µM
